Literature values, collected in publication PMC9324670, “Pd(II) Binding Strength of a Novel Ambidentate Dipeptide-Hydroxypyridinonate Ligand: A Solution Equilibrium Study” (Molecules, 2022).

Assays:
[1] = parameters: method as in doi:10.1016/S0020-1693(00)91874-7; conditions: fixed values used in the equilibrium models
[2] = pH-potentiometry

Row | Compound | logβ (stability constant of the complex in the Pd(II)–Cl^− system) [1] | pKOH(3) [2]
1 | [Cl][Pd+] [[PdCl]^+] | 4.47 | 
2 | [Cl][Pd-]([Cl])[Cl] [[PdCl3]^−] | 10.17 | 
3 | [Cl][Pd][Cl] [[PdCl2]] | 7.76 | 
4 | Cc1c(O)c(=O)ccn1C [H(L4), 3-hydroxy-1,2-dimethylpyridin-4(1H)-one] |  | 9.76
5 | [Cl][Pd-2]([Cl])([Cl])[Cl] [[PdCl4]^2−] | 11.56 | 
